Source: the supplement of paper PMC10307832

Key:
[1] = compound: CC1CC(=O)N(C2=CN=C(N=C2N1C3CCCC3)NC4=C(C=C(C=C4)C(=O)NC5CCN(CC5)C)OC)C [NPK76-II-72-1] + CCNC(=O)c1noc(-c2cc(C(C)C)c(O)cc2O)c1-c1ccc(CN2CCOCC2)cc1 [Luminespib] (partner 0.01 µM); assay: relative viability (nuclei count vs DMSO), 5 days (fraction); higher = more cells survive
Procedure, shortened: (§1)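 Five library-drug doses in √10 steps were combined with a fixed anchor-drug dose, or a single drug was given alone, by pin tool to lung cancer cell lines in 1536-well plates the day after seeding. Nuclei were stained and counted after 5 days. Relative viability is the nuclei count in treated wells over that in vehicle wells, taken as the median of duplicate plates.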

[2] = compound: CC1CC(=O)N(C2=CN=C(N=C2N1C3CCCC3)NC4=C(C=C(C=C4)C(=O)NC5CCN(CC5)C)OC)C [NPK76-II-72-1] + Cc1nc(Nc2ncc(C(=O)Nc3c(C)cccc3Cl)s2)cc(N2CCN(CCO)CC2)n1 [Dasatinib] (partner 0.075 µM); assay: as above
Procedure, shortened: as §1

| Cell Line | relative viability ([1]; first compound 0.01 µM) | relative viability ([1]; first compound 0.03162 µM) | relative viability ([1]; first compound 0.1 µM) | relative viability ([1]; first compound 0.3162 µM) | relative viability ([1]; first compound 1 µM) | relative viability ([2]; first compound 0.01 µM) | relative viability ([2]; first compound 0.03162 µM) | relative viability ([2]; first compound 0.1 µM) | relative viability ([2]; first compound 0.3162 µM) | relative viability ([2]; first compound 1 µM) |
| --- | --- | --- | --- | --- | --- | --- | --- | --- | --- | --- |
| NCI-H522 | 1.05 | 1.1 | 1.42 | 1.14 | 1.27 | 0.77 | 0.887 | 1.09 | 0.86 | 0.828 |
| HCC-15 | 0.226 | 0.256 | 0.275 | 0.16 | 0.318 | 0.598 | 0.637 | 0.599 | 0.642 | 0.649 |
| A-427 | 0.827 | 1.06 | 0.94 | 0.905 | 1.02 | 0.659 | 0.822 | 0.688 | 0.674 | 0.726 |
| NCI-H2228 | 0.177 | 0.143 | 0.174 | 0.133 | 0.166 | 0.367 | 0.547 | 0.495 | 0.566 | 0.619 |
| NCI-H1734 | 0.167 | 0.178 | 0.189 | 0.17 | 0.186 | 0.513 | 0.493 | 0.455 | 0.437 | 0.509 |
| PC-14 | 0.133 | 0.125 | 0.239 | 0.132 | 0.164 | 0.271 | 0.238 | 0.272 | 0.227 | 0.293 |
| NCI-H1915 | 0.762 | 0.798 | 0.75 | 0.7 | 0.845 | 0.324 | 0.352 | 0.324 | 0.351 | 0.302 |
| NCI-H1666 | 0.977 | 1.03 | 0.987 | 0.924 | 1.06 | 0.705 | 0.841 | 0.723 | 0.832 | 0.912 |
| HCC-366 | – | – | – | – | – | 0.593 | 0.633 | 0.638 | 0.606 | 0.635 |
| SK-MES-1 | 0.827 | 0.79 | 0.646 | 0.688 | 0.857 | 0.468 | 0.352 | 0.399 | 0.341 | 0.403 |
| SW 1573 | 0.333 | 0.218 | 0.278 | 0.383 | 0.21 | 0.46 | 0.592 | 0.556 | 0.589 | 0.509 |
| NCI-H661 | 0.964 | 0.943 | 0.892 | 0.906 | 0.933 | 0.825 | 0.914 | 0.94 | 0.729 | 1.12 |
| PC-3 [JPC-3] | 0.622 | 0.705 | 0.638 | 0.713 | 0.728 | 0.937 | 1.02 | 0.916 | 0.973 | 1.07 |
| NCI-H1623 | 0.448 | 0.382 | 0.513 | 0.421 | 0.574 | 0.562 | 0.522 | 0.554 | 0.401 | 0.545 |
| LC-2-ad | 0.979 | 1.12 | 0.955 | 1.04 | 1.16 | 0.569 | 0.862 | 0.485 | 0.438 | 0.791 |
| CAL-12T | 0.4 | 0.65 | 0.93 | 0.143 | 0.408 | 0.369 | 0.379 | 0.364 | 0.319 | 0.391 |
| RERF-LC-KJ | 1.33 | 1.41 | 1.3 | 1.21 | 1.33 | 0.818 | 0.886 | 0.722 | 0.732 | 0.808 |

| Cell Line | relative viability ([1]; first compound 0.01 µM) | relative viability ([1]; first compound 0.03162 µM) | relative viability ([1]; first compound 0.1 µM) | relative viability ([1]; first compound 0.3162 µM) | relative viability ([1]; first compound 1 µM) | relative viability ([2]; first compound 0.01 µM) | relative viability ([2]; first compound 0.03162 µM) | relative viability ([2]; first compound 0.1 µM) | relative viability ([2]; first compound 0.3162 µM) | relative viability ([2]; first compound 1 µM) |
| --- | --- | --- | --- | --- | --- | --- | --- | --- | --- | --- |
| NCI-H1650 | 0.185 | 0.198 | 0.207 | 0.194 | 0.194 | 0.308 | 0.314 | 0.405 | 0.293 | 0.265 |
| BEN | 0.326 | 0.332 | 0.325 | 0.403 | 0.329 | 0.33 | 0.232 | 0.314 | 0.345 | 0.324 |
| EMC-BAC-2 | 1.14 | 1.19 | 1.16 | 1.09 | 1.38 | 0.345 | 0.295 | 0.346 | 0.333 | 0.367 |
| LU99A | 0.261 | 0.212 | 0.304 | 0.238 | 0.278 | 0.404 | 0.505 | 0.51 | 0.442 | 0.674 |
| ABC-1 | – | 0.389 | – | 0.543 | 0.522 | – | 0.578 | 0.622 | 0.573 | 0.614 |
| NCI-H2170 | 0.63 | 0.403 | 0.586 | 0.548 | 0.61 | 0.599 | 0.487 | 0.598 | 0.315 | 0.762 |
| NCI-H2347 | 0.529 | 0.593 | 0.459 | 0.526 | 0.437 | 0.309 | 0.297 | 0.348 | 0.348 | 0.327 |
| NCI-H1993 | 0.848 | 0.87 | 0.925 | 0.764 | 0.818 | 0.442 | 0.654 | 0.619 | 0.548 | 0.759 |
| NCI-H322M | 0.818 | 0.826 | 0.943 | 0.783 | 1.01 | 0.268 | 0.241 | 0.249 | 0.234 | 0.256 |
| NCI-H838 | 0.288 | 0.344 | 0.299 | 0.273 | 0.274 | 0.28 | 0.247 | 0.253 | 0.265 | 0.292 |
| HARA | 0.854 | 0.831 | 0.668 | 0.439 | 0.895 | 0.254 | 0.233 | 0.168 | 0.237 | 0.219 |
| NCI-H2087 | 0.154 | 0.16 | 0.136 | 0.158 | 0.185 | 0.873 | 0.873 | 0.813 | 0.941 | 0.71 |
| NCI-H1437 | 1.03 | 1.13 | 1.09 | 1.03 | 1.08 | 0.416 | 0.388 | 0.321 | 0.33 | 0.417 |
| NCI-H2342 | 0.653 | 0.6 | 0.67 | 0.548 | 0.709 | 0.345 | 0.301 | 0.328 | 0.262 | 0.346 |
| NCI-H1792 | 0.404 | 0.504 | 0.469 | 0.5 | 0.556 | 0.799 | – | 0.842 | 0.66 | 0.726 |
| ChaGo-K-1 | 0.624 | 0.616 | 0.695 | 0.523 | 0.67 | 0.577 | 0.624 | 0.505 | 0.53 | 0.596 |
